Source: ChEMBL document CHEMBL5052828, “Therapeutic agents for treating and preventing autoimmune diseases and cancer and a screening method” (2020)
Each block holds one molecule with its values, some of them ahead of it. Active and inactive are the calls of the source. The rule behind the calls is not given here.

Experiments:
Mus musculus [1] = assay: Antiinflammatory activity in C57BL/6 mouse model of collagen-induced arthritis assessed as reduction in frequency of CD4+ IL-17+ cells at 0.25 mg, ip; format: functional, organism-based
LNCaP [2] = assay: Antiproliferative activity against human LNCaP cells after 4 hrs by CCK-8 assay; format: functional, cell-based
LNCaP [3] = assay: Antiproliferative activity against human LNCaP cells at 25 uM assessed as suppression of cell viability after 4 hrs by CCK-8 assay; format: functional
Mus musculus [4] = assay: Protection against imiquimod-induced psoriasis model of BALB/c mouse assessed as reduction in clinical score at 1 mg treated topically; format: functional, organism-based
MDA-MB-231 [5] = assay: Antiproliferative activity against human MDA-MB-231 cells after 4 hrs by CCK-8 assay; format: functional, cell-based; settings: MDA-MB-231, 4 h
HEK293T [6] = assay: Inhibition of Arid5a in human HEK293T cells at 40 uM assessed as inhibition of stabilization of IL-6 on 3'UTR measured by luciferase assay; format: cell-based
Mus musculus [7] = assay: Antiinflammatory activity in C57BL/6 mouse model of collagen-induced arthritis assessed as reduction in clinical score at 0.25 mg, ip; format: functional, organism-based
A549 [8] = assay: Antiproliferative activity against human A549 cells after 4 hrs by CCK-8 assay; format: functional, cell-based; settings: A549, 4 h
A549 [9] = assay: Antiproliferative activity against human A549 cells at 20 uM assessed as suppression of cell viability after 4 hrs by CCK-8 assay; format: functional
Mus musculus [10] = assay: Antiinflammatory activity in C57BL/6 mouse model of collagen-induced arthritis assessed as reduction in serum IL-6 level at 0.25 mg, ip; format: functional, organism-based
MDA-MB-231 [11] = assay: Antiproliferative activity against human MDA-MB-231 cells at 20 uM assessed as suppression of cell viability after 4 hrs by CCK-8 assay; format: functional
Mus musculus [12] = assay: Protection against imiquimod-induced psoriasis model of BALB/c mouse assessed as reduction in IL-6 mRNA expression at 1 mg treated topically; format: functional, organism-based
Mus musculus [13] = assay: Protection against imiquimod-induced psoriasis model of BALB/c mouse assessed as reduction in IL-17a mRNA expression at 1 mg treated topically; format: functional, organism-based
HEK293T [14] = assay: Inhibition of Arid5a V34 pocket X mutant in human HEK293T cells at 40 uM assessed as inhibition of stabilization of STAT3 on 3'UTR measured by luciferase assay; format: cell-based
HEK293T [15] = assay: Inhibition of Arid5a in human HEK293T cells at 10 to 60 uM assessed as inhibition of stabilization of OX40 on 3'UTR measured by luciferase assay; format: cell-based; settings: dose 10-60 µM
HEK293T [16] = assay: Inhibition of Arid5a F56 pocket X mutant in human HEK293T cells at 40 uM assessed as inhibition of stabilization of OX40 on 3'UTR measured by luciferase assay; format: cell-based
HEK293T [17] = assay: Inhibition of Arid5a in human HEK293T cells at 10 to 60 uM assessed as inhibition of stabilization of STAT3 on 3'UTR measured by luciferase assay; format: cell-based; settings: dose 10-60 µM
Mus musculus [18] = assay: Immunosuppressive activity in MOG (35 to 55 residues)/pertussis toxin-induced experimental autoimmune encephalomyelitis female C57BL/6 mouse model assessed as reduction in IL-17 level in encephalitogenic CD4 + T cells at 0.5 mg, ip; format: functional, organism-based; settings: T-cell
Macrophage [19] = assay: Antiinflammatory activity in LPS-stimulated mouse peritoneal macrophages at 40 uM assessed as decrease in IL-17 level measured by ELISA; format: functional, cell-based
Homo sapiens = species: Homo sapiens; assay: Inhibition of human Arid5a binding to (ADE) -like stem loop in the OX40 3'UTR measured by RNA-protein binding assay; settings: dose 0.5 mg
Mus musculus [20] = assay: Immunosuppressive activity in MOG (35 to 55 residues)/pertussis toxin-induced experimental autoimmune encephalomyelitis female C57BL/6 mouse model assessed as reduction in serum TNF-alpha level at 0.5 mg, ip; format: functional, organism-based
HEK293T [21] = assay: Inhibition of Arid5a V34 pocket X mutant in human HEK293T cells at 40 uM assessed as inhibition of stabilization of OX40 on 3'UTR measured by luciferase assay; format: cell-based
Mus musculus [22] = assay: Immunosuppressive activity in MOG (35 to 55 residues)/pertussis toxin-induced experimental autoimmune encephalomyelitis female C57BL/6 mouse model assessed as reduction in frequency of CD4 + OX40 + T cells at 0.5 mg, ip; format: functional, organism-based; settings: T-cell
Mus musculus [23] = assay: Immunosuppressive activity in MOG (35 to 55 residues)/pertussis toxin-induced experimental autoimmune encephalomyelitis female C57BL/6 mouse model assessed as reduction in clinical scores at 0.5 mg, ip; format: functional, organism-based
HEK293T [24] = assay: Inhibition of Arid5a L84 pocket X mutant in human HEK293T cells at 40 uM assessed as inhibition of stabilization of IL-6 on 3'UTR measured by luciferase assay; format: cell-based
HEK293T [25] = assay: Inhibition of Arid5a L84 pocket X mutant in human HEK293T cells at 40 uM assessed as inhibition of stabilization of STAT3 on 3'UTR measured by luciferase assay; format: cell-based
Macrophage [26] = assay: Antiinflammatory activity in LPS-stimulated mouse peritoneal macrophages at 40 uM assessed as decrease STAT3 mRNA expression in Th17 cells; format: functional, cell-based
HEK293T [27] = assay: Inhibition of Arid5a Y137 pocket X mutant in human HEK293T cells at 40 uM assessed as inhibition of stabilization of STAT3 on 3'UTR measured by luciferase assay; format: cell-based
HEK293T [28] = assay: Inhibition of Arid5a F56 pocket X mutant in human HEK293T cells at 40 uM assessed as inhibition of stabilization of IL-6 on 3'UTR measured by luciferase assay; format: cell-based
Mus musculus [29] = assay: Immunosuppressive activity in MOG (35 to 55 residues)/pertussis toxin-induced experimental autoimmune encephalomyelitis female C57BL/6 mouse model assessed as reduction in serum IL-6 level at 0.5 mg, ip; format: functional, organism-based
HEK293T [30] = assay: Inhibition of Arid5a in human HEK293T cells at 10 to 60 uM assessed as inhibition of stabilization of IL-6 on 3'UTR measured by luciferase assay; format: cell-based; settings: dose 10-60 µM
HEK293T [31] = assay: Inhibition of Arid5a Y137 pocket X mutant in human HEK293T cells at 40 uM assessed as inhibition of stabilization of IL-6 on 3'UTR measured by luciferase assay; format: cell-based
Macrophage [32] = assay: Antiinflammatory activity in LPS-stimulated mouse peritoneal macrophages at 40 uM assessed as decrease in frequency of CD4 + OX40 + T cells in polarized Th17 cells measured by flow cytometry analysis; format: functional, cell-based
Mus musculus [33] = assay: Immunosuppressive activity in MOG (35 to 55 residues)/pertussis toxin-induced experimental autoimmune encephalomyelitis female C57BL/6 mouse model assessed as reduction in OX40 mRNA expression in CD4 + T cells at 0.5 mg, ip; format: functional, organism-based; settings: T-cell
HEK293T [34] = assay: Inhibition of Arid5a V34 pocket X mutant in human HEK293T cells at 40 uM assessed as inhibition of stabilization of IL-6 on 3'UTR measured by luciferase assay; format: cell-based
HEK293T [35] = assay: Inhibition of Arid5a F56 pocket X mutant in human HEK293T cells at 40 uM assessed as inhibition of stabilization of STAT3 on 3'UTR measured by luciferase assay; format: cell-based
Macrophage [36] = assay: Antiinflammatory activity in LPS-stimulated mouse peritoneal macrophages at 40 uM assessed as decrease in IL-6 level measured by ELISA; format: functional, cell-based
HEK293T [37] = assay: Inhibition of Arid5a L84 pocket X mutant in human HEK293T cells at 40 uM assessed as inhibition of stabilization of OX40 on 3'UTR measured by luciferase assay; format: cell-based
HEK293T [38] = assay: Inhibition of Arid5a Y137 pocket X mutant in human HEK293T cells at 40 uM assessed as inhibition of stabilization of OX40 on 3'UTR measured by luciferase assay; format: cell-based
Macrophage [39] = assay: Antiinflammatory activity in LPS-stimulated mouse peritoneal macrophages at 40 uM assessed as effect on TNF-alpha level measured by ELISA; format: functional, cell-based

- IC50 (LNCaP [2]): 34.6 µM
- IC50 (MDA-MB-231 [5]): 27.8 µM
- IC50 (A549 [8]): 28.4 µM
SMILES: CC(=O)CSc1nnc(-c2cccnc2)o1
- Activity (Mus musculus [1]): Active
- Activity (LNCaP [3]): 61%
- Activity (Mus musculus [4]): Active
- inhibition (HEK293T [6]): Active
- Activity (Mus musculus [7]): Active
- Activity (A549 [9]): 59%
- Activity (Mus musculus [10]): Active
- Activity (MDA-MB-231 [11]): 64%
- Activity (Mus musculus [12]): Active
- Activity (Mus musculus [13]): Active

- IC50 (LNCaP [2]): 34.6 µM
- IC50 (MDA-MB-231 [5]): 27.8 µM
- IC50 (A549 [8]): 28.4 µM
SMILES: Cc1nnc(NCC(=O)c2ccccc2)s1
- Activity (Mus musculus [1]): Active
- Activity (LNCaP [3]): 61%
- Activity (Mus musculus [4]): Active
- inhibition (HEK293T [6]): Active
- Activity (Mus musculus [7]): Active
- Activity (A549 [9]): 59%
- Activity (Mus musculus [10]): Active
- Activity (MDA-MB-231 [11]): 64%
- Activity (Mus musculus [12]): Active
- Activity (Mus musculus [13]): Active

- IC50 (LNCaP [2]): 34.6 µM
- IC50 (MDA-MB-231 [5]): 27.8 µM
- IC50 (A549 [8]): 28.4 µM
SMILES: Cc1nnc(SCC(=O)c2ccccc2)o1
- Activity (Mus musculus [1]): Active
- Activity (LNCaP [3]): 61%
- Activity (Mus musculus [4]): Active
- inhibition (HEK293T [6]): Active
- Activity (Mus musculus [7]): Active
- Activity (A549 [9]): 59%
- Activity (Mus musculus [10]): Active
- Activity (MDA-MB-231 [11]): 64%
- Activity (Mus musculus [12]): Active
- Activity (Mus musculus [13]): Active

SMILES: O=C(CSc1nnc(-c2ccncc2)o1)c1ccccc1
- Activity (Mus musculus [1]): Active
- inhibition (HEK293T [14]): inactive
- inhibition (HEK293T [15]): Active
- inhibition (HEK293T [16]): inactive
- inhibition (HEK293T [17]): Active
- Activity (Mus musculus [18]): Active
- IC50 (LNCaP [2]): 34.6 µM
- Activity (Macrophage [19]): Active
- Activity (LNCaP [3]): 61%
- Activity (Mus musculus [4]): Active
- IC50 (MDA-MB-231 [5]): 27.8 µM
- inhibition (Homo sapiens): Active
- Activity (Mus musculus [20]): Active
- inhibition (HEK293T [21]): inactive
- Activity (Mus musculus [22]): Active
- Activity (Mus musculus [23]): Active
- inhibition (HEK293T [24]): inactive
- inhibition (HEK293T [6]): Active
- inhibition (HEK293T [25]): inactive
- Activity (Macrophage [26]): Active
- inhibition (HEK293T [27]): inactive
- inhibition (HEK293T [28]): inactive
- Activity (Mus musculus [7]): Active
- Activity (Mus musculus [29]): Active
- inhibition (HEK293T [30]): Active
- inhibition (HEK293T [31]): inactive
- Activity (Macrophage [32]): Active
- IC50 (A549 [8]): 28.4 µM
- Activity (Mus musculus [33]): Active
- Activity (A549 [9]): 59%
- inhibition (HEK293T [34]): inactive
- inhibition (HEK293T [35]): inactive
- Activity (Mus musculus [10]): Active
- Activity (Macrophage [36]): Active
- inhibition (HEK293T [37]): inactive
- Activity (MDA-MB-231 [11]): 64%
- Activity (Mus musculus [12]): Active
- Activity (Mus musculus [13]): Active
- inhibition (HEK293T [38]): inactive
- Activity (Macrophage [39]): inactive
